Results: the supplement of paper PMC10307832

How the values were obtained:
Assay in all cases: relative viability (nuclei count vs DMSO), 5 days (fraction); higher = more cells survive
OSI-027 + Navitoclax = compound: COc1cccc2cc(-c3nc([C@H]4CC[C@H](C(=O)O)CC4)n4ncnc(N)c34)[nH]c12 [OSI-027] + CC1(C)CCC(c2ccc(Cl)cc2)=C(CN2CCN(c3ccc(C(=O)NS(=O)(=O)c4ccc(N[C@H](CCN5CCOCC5)CSc5ccccc5)c(S(=O)(=O)C(F)(F)F)c4)cc3)CC2)C1 [Navitoclax] (partner 0.5 µM)
Procedure, shortened: (§1)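 Cells from lung cancer lines were seeded into 1536-well plates and, one day later, dosed by pin tool. Treatments were either a single drug or a fixed dose of an anchor drug with five library-drug doses (not always all listed) in √10 steps. After 5 days, nuclei were stained in a one-step fixation (final 0.05% Triton X-100, 1% formaldehyde, 1 ug/ml Hoechst) and counted on 4× images, and relative viability is the treated-to-vehicle nuclei ratio, as the median of duplicate plates.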

OSI-027 + Foretinib = compound: COc1cccc2cc(-c3nc([C@H]4CC[C@H](C(=O)O)CC4)n4ncnc(N)c34)[nH]c12 [OSI-027] + COc1cc2c(Oc3ccc(NC(=O)C4(C(=O)Nc5ccc(F)cc5)CC4)cc3F)ccnc2cc1OCCCN1CCOCC1 [Foretinib] (partner 0.25 µM)
Procedure, shortened: as §1

Vemurafenib + Luminespib = compound: CCCS(=O)(=O)Nc1ccc(F)c(C(=O)c2c[nH]c3ncc(-c4ccc(Cl)cc4)cc23)c1F [Vemurafenib] + CCNC(=O)c1noc(-c2cc(C(C)C)c(O)cc2O)c1-c1ccc(CN2CCOCC2)cc1 [Luminespib] (partner 0.01 µM)
Procedure, shortened: as §1

Vemurafenib + AZD7762 = compound: CCCS(=O)(=O)Nc1ccc(F)c(C(=O)c2c[nH]c3ncc(-c4ccc(Cl)cc4)cc23)c1F [Vemurafenib] + NC(=O)Nc1cc(-c2cccc(F)c2)sc1C(=O)N[C@H]1CCCNC1 [AZD7762] (partner 0.2 µM)
Procedure, shortened: as §1

| Cell Line | relative viability (OSI-027 + Navitoclax; first compound 0.01 µM) | relative viability (OSI-027 + Navitoclax; first compound 0.03162 µM) | relative viability (OSI-027 + Navitoclax; first compound 0.1 µM) | relative viability (OSI-027 + Navitoclax; first compound 0.3162 µM) | relative viability (OSI-027 + Navitoclax; first compound 1 µM) | relative viability (OSI-027 + Foretinib; first compound 0.01 µM) | relative viability (OSI-027 + Foretinib; first compound 0.03162 µM) | relative viability (OSI-027 + Foretinib; first compound 0.1 µM) | relative viability (OSI-027 + Foretinib; first compound 0.3162 µM) | relative viability (OSI-027 + Foretinib; first compound 1 µM) | relative viability (Vemurafenib + Luminespib; first compound 0.03162 µM) | relative viability (Vemurafenib + Luminespib; first compound 0.1 µM) | relative viability (Vemurafenib + Luminespib; first compound 0.3162 µM) | relative viability (Vemurafenib + Luminespib; first compound 1 µM) | relative viability (Vemurafenib + AZD7762; first compound 0.03162 µM) | relative viability (Vemurafenib + AZD7762; first compound 0.1 µM) | relative viability (Vemurafenib + AZD7762; first compound 0.3162 µM) | relative viability (Vemurafenib + AZD7762; first compound 1 µM) |
| --- | --- | --- | --- | --- | --- | --- | --- | --- | --- | --- | --- | --- | --- | --- | --- | --- | --- | --- |
| NCI-H1734 | 0.749 | 0.836 | 0.785 | 0.746 | 0.384 | 0.87 | 0.92 | 0.799 | 0.726 | 0.477 | 0.196 | 0.183 | 0.233 | 0.2 | 0.568 | 0.533 | 0.371 | 0.559 |
| NCI-H1755 | 1.01 | 0.968 | 0.988 | 0.753 | 0.279 | 0.859 | 0.92 | 0.835 | 0.809 | 0.522 | 0.442 | 0.574 | 0.332 | 0.462 | 0.483 | 0.459 | 0.328 | 0.408 |
| NCI-H1793 | 0.399 | 0.387 | 0.407 | 0.318 | 0.223 | 0.574 | 0.557 | 0.539 | 0.345 | 0.166 | 0.16 | – | 0.173 | 0.166 | 0.445 | 0.243 | 0.131 | 0.492 |
| NCI-H1915 | 0.831 | 0.779 | 0.809 | 0.801 | 0.85 | 1.23 | 1.14 | 1.12 | 1.03 | 0.582 | 0.698 | 0.727 | 0.795 | 0.636 | 0.644 | 0.728 | 0.587 | 0.612 |
| NCI-H1944 | 1.1 | 1.04 | 1.03 | 0.963 | 0.719 | 0.835 | 0.918 | 0.884 | 0.73 | 0.394 | 0.665 | 0.601 | 0.736 | 0.663 | 0.515 | – | 0.426 | 0.57 |
| NCI-H1975 | 1.19 | 1.11 | 1.16 | 1.02 | 0.508 | 1 | 0.954 | 0.783 | 0.841 | 0.635 | 0.295 | 0.219 | – | 0.287 | 0.689 | 0.697 | 0.396 | 0.654 |
| NCI-H1993 | 0.89 | 0.863 | 0.659 | 0.502 | 0.719 | 0.749 | 0.633 | 0.549 | 0.487 | 0.575 | 0.465 | – | 0.773 | 0.86 | 0.657 | – | 0.804 | 0.966 |
| NCI-H2085 | 1.11 | 1.12 | 1.1 | 0.931 | 0.7 | 1.09 | 1.01 | 0.895 | 1.05 | 0.591 | 0.451 | 0.425 | 0.423 | 0.492 | 0.893 | 0.804 | 0.928 | 0.997 |
| NCI-H2087 | 1.09 | 0.998 | 0.8 | 0.537 | 0.353 | 1.11 | 1.1 | 1.01 | 0.863 | 0.39 | 0.166 | 0.185 | – | 0.162 | 1.12 | 1.31 | 1.09 | 1.19 |
| NCI-H2126 | 0.885 | 0.856 | 0.818 | 0.679 | 0.801 | 1.3 | 0.983 | 1.2 | 0.862 | 0.786 | 0.847 | 0.905 | – | 0.972 | 0.971 | 0.997 | 0.99 | 1.1 |
| NCI-H2170 | 0.651 | 0.565 | 0.471 | 0.535 | 0.221 | 1.1 | 0.962 | 0.981 | 0.965 | 0.667 | 0.58 | 0.486 | 0.559 | 0.545 | 0.774 | – | 0.685 | 0.766 |
| NCI-H2347 | 0.916 | 0.764 | 0.609 | 0.626 | 0.333 | 0.914 | 1.15 | 0.633 | 0.494 | 0.468 | 0.626 | 0.164 | 0.552 | 0.71 | 0.744 | 0.744 | 0.664 | 0.884 |
| NCI-H2405 | 0.858 | 0.791 | 0.768 | 0.636 | 0.384 | 1.02 | 0.968 | 0.918 | 0.734 | 0.537 | 0.667 | 0.625 | – | 0.576 | 0.709 | 0.696 | – | 0.721 |
| NCI-H3122 | 1.03 | 1.14 | 1.13 | 1.03 | 0.334 | 1.02 | 0.998 | 1.03 | 0.98 | 0.45 | 0.138 | 0.123 | 0.0825 | 0.101 | 0.988 | 0.895 | 0.922 | 1.09 |
| PC-3 [JPC-3] | 0.822 | 0.765 | 0.772 | 0.739 | 0.547 | 1.02 | 0.976 | 0.963 | 0.98 | 0.454 | 0.671 | – | 0.724 | 0.782 | – | – | 0.785 | 0.94 |
| PC-14 | 1.02 | 0.998 | 1.05 | 1.05 | 0.939 | 0.937 | 0.843 | 1.03 | 0.958 | 0.847 | 0.234 | – | 0.18 | 0.148 | 0.272 | – | – | 0.356 |
| RERF-LC-KJ | 0.795 | 1 | 0.839 | 0.672 | 0.289 | 0.869 | 0.885 | 0.919 | 0.622 | 0.445 | 1.26 | 0.991 | 1.26 | 1.31 | 0.874 | 1.01 | 0.663 | 1.08 |
